Measurements published in publication PMC9088311, “Cyclic Thiosulfonates for Thiol-Mediated Uptake: Cascade Exchangers, Transporters, Inhibitors” (JACS Au, 2022).
Values after ≈ are worked out from the molar mass of the structure shown. Like-named read-outs stand apart in the source and are kept apart here.

Tests used:
HeLa Kyoto cells [1] = experiment: Relative viability (HOE/PI) in HCHT screening
Description: One advantage of HCHT imaging of cellular uptake compared to flow cytometry[38],[42],[43] is that it simultaneously gives information on toxicity and intracellular localization. […] Information on the intracellular localization of reporters can be quantified through segmentation of cellular compartments stained with specific markers.[52]
(§1) Uptake inhibition was measured by the automated HCHT imaging used already to elaborate on cytosolic delivery. For inhibitor screening, HK cells in multiwell plates were incubated with increasing concentrations of inhibitors, followed by fluorescent transporters 28, 31, and 32 at a constant concentration. […] If inhibitors are removed before the addition of transporters 28, 31, and 32, the method is referred to as “pre-incubation”. This is of interest to minimize exchange between the transporter and the inhibitor but is often problematic because dynamic covalent exchange between the inhibitor and cellular target can also be reversed and thus lost. The complementary “co-incubation” operates without inhibitor removal before the addition of transporters 28, 31, and 32.
Relative cell viability ( RV) for each condition in the presence of inhibitors was calculated […]
of the relative cell viability ( RVrel) to the concentration of inhibitors ( cinhibitor ) was plotted and fitted with Equation (S19) to retrieve the concentration causing 50% cell growth inhibition (RV50) value and the Hill coefficient ( n).

HK cells, transporter 32 = tested on: HK cells, transporter 32; set-up: method as in PMID 34173696; conditions: transporter 32 0.5 or 1 μM, pre-incubation (P), cited from earlier work; for IC50: read-out: IC50 (concentration needed to reach 50% inhibition)
HK cells, transporter 28 = experiment: HCHT imaging: inhibition of cytosolic delivery of CTO transporter 28; format: cell-based, Human; set-up: key to inhibition of CTO 28 uptake (heatmap): –: −: inactive; ++: qualitative inhibition of SC2 uptake; conditions: for IC50 / IC15: Homo sapiens; for IC50: read-out: IC50 (concentration needed to reach 50% inhibition), transporter 28 5 μM; for IC50 / IC15 / MIC (concentration needed to reach 15% inhibition): inhibitor 1 h
Description: as §1
(§2) 536/40 nm emission filter, and red with 531/40 nm excitation filter and 593/40 nm emission […]
(§3) 4.3. HCHT Inhibitor Screening
(§4) Pre-Incubation Method. As in ref. S1. HeLa Kyoto cells were seeded at 8 ×10^4 cells/mL in FluoroBrite DMEM + 10% FBS on μ-Plate 96-well Black ibiTreat sterile and incubated at 37 °C with 5% CO 2 for 24 h. Then, the medium was removed and cells were washed with PBS ([…]), fresh FluoroBrite DMEM medium (4 × 150 μL/well) was added into the cells using a plate washer (Biotek EL406®), keeping a final volume of 135 μL/well. Different concentrations of the inhibitors were prepared by serial dilution with 10% final concentration DMSO (10× in PBS). The solution of compounds 4 and 33 was prepared final DMSO concentration of 10% in each dilution (10× in PBS). These inhibitor solutions (10× final concentration), transporter 28 (10× in DMEM), transporters 31 and 32 (10× in PBS) a solution of HOE (100 μg/mL) and PI (10 μg/mL) in PBS were prepared freshly in a 96-well V-bottom plate before adding to the cells. The inhibitor solutions from the V-bottom plate were added to the cells (15 μL/well) in a final volume of 150 μL/well using an electronic multichannel pipette and cells were incubated for 1 h at 37 °C with 5% CO 2. After this incubation, cells were washed again with PBS and DMEM using the plate washer (in the way mentioned above), and transporter 28 , 31 or 32 from the V-bottom plate was added (15 μL/well) to the cells in a final volume of 150 μL/well. A final concentration of each transporter 28 , 31 and 32 was 5 μM, 10 μM and 0.5 μM, respectively, except for the control wells, where only PBS was added (15 μL/well). Cells treated with transporter 28 or 31 were incubated for 30 min, and cells treated with 32 were incubated for 2 h at 37 °C with 5% CO 2. After that, the cells were washed with PBS and DMEM using the plate washer, and the solution of Hoechst 33342 and PI from the V-bottom plate was added (15 μL/well) to the cells in a final volume of 150 μL/well. After 15 min of incubation at 37 °C with 5% CO 2, the cells were washed and kept in clean FluoroBrite
(§5) DMEM. For live cell imaging, samples were kept at 37 °C with 5% CO 2 during the microscope imaging. The distribution of fluorescence stained cells was analyzed without fixing using an […]

HK cells, transporter 31 [2] = conditions: transporter 31 10 μM, pre-incubation (P), cited from earlier work; for IC50: read-out: IC50 (concentration needed to reach 50% inhibition)
HeLa Kyoto cells [3] = conditions: with transporter 31; pre-incubation (P); cited from earlier work
in vitro = conditions: human
cathepsin B = cathepsin B (Homo sapiens, UniProt P07858); experiment: Cathepsin B inhibition (preliminary, not shown); format: biochemical; conditions: 50 μM; preliminary results
cathepsin L = cathepsin L (Homo sapiens, UniProt P07711); experiment: Cathepsin L inhibition (preliminary, not shown); format: biochemical; conditions: 50 μM; preliminary results
HK cells, transporter 31 [4] = experiment: HCHT imaging: inhibition of cytosolic delivery of ETP transporter 31; format: cell-based, Human; conditions: inhibitor 1 h; for IC15: read-out: MIC (concentration needed to reach 15% inhibition), transporter 31 10 μM
Description: as §1, §2, §3, §4, §5

trypsin = experiment: Trypsin inhibition (preliminary, not shown); format: biochemical; conditions: 50 μM; preliminary results
HeLa Kyoto (HK) cells = experiment: Cellular uptake of fluorescent transporters (HCHT imaging, SDCM); format: cell-based, Human; conditions: 10, 20, 50 μM transporter
Description: Cellular uptake was measured by automated high-content high-throughput (HCHT) imaging.[51] This method provides access to biologically meaningful and statistically relevant data from thousands of cells within a very short time. For the uptake monitoring, HeLa Kyoto (HK) cells in multiwell plates were incubated with the fluorescent transporters 28–30 for 1 h, washed, and imaged by spinning disk confocal microscopy (SDCM) to quantify the fluorescent transporters that have entered the cells. […] The better activity of CTOs 28 compared to 29 was consistent with the concept of hydrophobic directing groups, expected to guide CTOs into an aprotic environment within membranes or proteins to activate the sulfinate exchanger and thus turn on dynamic covalent exchange cascades with cellular partners (Figure 2D). The passive diffusion of transporter 28 across the membrane is conceivable but unlikely because this process can be inhibited by other CAXs (see the next section).
4. High-Content High-Throughput (HCHT) Inhibitor Screening […]
The distribution of fluorescence stained cells was analyzed without fixing using an IXM-C automated microscope. 4 images per well were recorded using 10× objective lens, and fluorescent images were acquired with three channels, blue with 377/50 nm excitation filter and 477/60 nm emission filter, green for FITC transporter with 475/34 nm excitation filter and […]

[5] = tested on: A549 human lung alveolar basal epithelium cells overexpressing ACE2 and TMPRSS2; conditions: inhibitor 5 μM
[6] = with transporter 28, pre-incubation (P)
[7] = transporter 28 5 μM, pre-incubation (P)
[8] = with transporter 28, co-incubation (C)
[9] = with transporter 31, co-incubation (C)
[10] = 1 h, read-out: MIC (concentration needed to reach 15% inhibition), transporter 28 5 μM, co-incubation (C)
[11] = transporter 28 5 μM, co-incubation (C)
[12] = Homo sapiens, 1 h, read-out: IC50 (concentration needed to reach 50% inhibition), transporter 31 10 μM, co-incubation (C)
[13] = Homo sapiens, 1 h, co-incubation (C)

cathepsin L, sequence (P07711 114-333, species assumed): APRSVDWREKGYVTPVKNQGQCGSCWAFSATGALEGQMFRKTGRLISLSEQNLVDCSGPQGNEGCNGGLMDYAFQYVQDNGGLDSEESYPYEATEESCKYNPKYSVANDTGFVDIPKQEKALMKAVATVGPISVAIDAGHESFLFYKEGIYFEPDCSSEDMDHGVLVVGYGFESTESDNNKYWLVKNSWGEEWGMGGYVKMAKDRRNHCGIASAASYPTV

Structure (SMILES): CCN1C(=O)C2SSSSC1C(=O)N2CC(=O)O (centres unmarked) [Compound 47, reference compound]
- RV50 (concentration needed to lower relative viability by 50%) (HeLa Kyoto cells [1]; [6]): >10 µM
- IC50 (HK cells, transporter 32): 50 µM
- MIC (concentration needed to reach 15% inhibition) (HK cells, transporter 32): 2 µM (≈ 0.653 µg/mL)
- IC50 (HK cells, transporter 28; pre-incubation (P)): > 10 µM
- IC15 (HK cells, transporter 28; read-out: MIC (concentration needed to reach 15% inhibition), transporter 28 5 μM, pre-incubation (P)): > 10 µM
- inhibition of CTO 28 uptake (heatmap) (HK cells, transporter 28; pre-incubation conditions): –
- MIC (concentration needed to reach 15% inhibition) (HK cells, transporter 28; [7]): >10 µM
- IC50 (HK cells, transporter 31 [2]): 1.3 µM
- RV50 (concentration needed to lower relative viability by 50%) (HeLa Kyoto cells [3]): 35 µM
- viability at 7 h, 50 µM (in vitro): 70%

Structure (SMILES): O=C(N[C@H]1CCS(=O)(=O)SC1)N[C@H]1CCS(=O)(=O)SC1 [Compound 35]
- RV50 (concentration needed to lower relative viability by 50%) (HeLa Kyoto cells [1]; [8]): >50 µM
- RV50 (concentration needed to lower relative viability by 50%) (HeLa Kyoto cells [1]; [9]): >100 µM
- inhibition of cathepsin B (in words) (cathepsin B): inhibit only cathepsin B
- inhibition of cathepsin L (in words) (cathepsin L): inhibit only cathepsin B
- IC50 (HK cells, transporter 28; 1 h, co-incubation (C)): 25 µM
- IC15 (HK cells, transporter 28; [10]): 3.5 µM
- MIC (concentration needed to reach 15% inhibition) (HK cells, transporter 28; [11]): 4 µM
- IC50 (HK cells, transporter 31 [4]; [12]): 51 µM
- IC15 (HK cells, transporter 31 [4]; [13]): 9 µM
- inhibition of trypsin (in words) (trypsin): inhibit only cathepsin B
- viability at 7 h, 50 µM (in vitro): 96%

Structure (SMILES): O=C(CO[C@H]1CSS(=O)(=O)C[C@@H]1O)NCCNC(=S)Nc1ccc(-c2c3ccc(=O)cc-3oc3cc(O)ccc23)c(C(=O)O)c1 [Compound 29]
- cellular uptake, fluorescence intensity of HK cells (in words) (HeLa Kyoto (HK) cells): more active than the AspA 30 standard

Structure (SMILES): CC(C)(C)OC(=O)NCCNC(=O)O[C@H]1CSS(=O)(=O)C[C@H]1O[Si](C)(C)C(C)(C)C (racemic) [Compound 50]
- RV50 (concentration needed to lower relative viability by 50%) (HeLa Kyoto cells [1]; [9]): ≈ 20 μM
- IC50 (HK cells, transporter 31 [4]; read-out: IC50 (concentration needed to reach 50% inhibition), transporter 31 10 μM, co-incubation (C)): 20 ± 3 µM
- MIC (concentration needed to reach 15% inhibition) (HK cells, transporter 31 [4]; transporter 31 10 μM, co-incubation (C)): 5.6 µM
- RV, relative cell viability [5]: 110 ± 10%

Structure (SMILES): CC(C)(C)[Si](C)(C)O[C@H]1CS(=O)(=O)SC[C@@H]1OCC(=O)NCCNC(=S)Nc1ccc(-c2c3ccc(=O)cc-3oc3cc(O)ccc23)c(C(=O)O)c1 [Compound 28]
- cellular uptake, fluorescence intensity of HK cells (in words) (HeLa Kyoto (HK) cells): more active than the AspA 30 standard

Structure (SMILES): CC(C)(C)OC(=O)NCCNC(=O)O[C@H]1CSS(=O)(=O)C[C@H]1O [Compound 34]
- RV50 (concentration needed to lower relative viability by 50%) (HeLa Kyoto cells [1]; [8]): >50 µM
- RV50 (concentration needed to lower relative viability by 50%) (HeLa Kyoto cells [1]; [9]): >100 µM
- RV50 (concentration needed to lower relative viability by 50%) (HeLa Kyoto cells [1]; with transporter 31, pre-incubation (P)): >100 µM
- inhibition of cathepsin B (in words) (cathepsin B): inhibit only cathepsin B
- inhibition of cathepsin L (in words) (cathepsin L): inhibit only cathepsin B
- IC50 (HK cells, transporter 28; 1 h, co-incubation (C)): 26 µM
- IC15 (HK cells, transporter 28; [10]): 1.2 µM
- MIC (concentration needed to reach 15% inhibition) (HK cells, transporter 28; [11]): 1 µM
- IC50 (HK cells, transporter 31 [4]; [12]): > 100 µM
- IC15 (HK cells, transporter 31 [4]; [13]): 16 µM
- IC15 (HK cells, transporter 31 [4]; Homo sapiens, 1 h, pre-incubation (P)): 3 µM
- IC50 (HK cells, transporter 31 [4]; Homo sapiens, read-out: IC50 (concentration needed to reach 50% inhibition), transporter 31 10 μM, pre-incubation (P)): > 100 µM
- MIC (concentration needed to reach 15% inhibition) (HK cells, transporter 31 [4]; transporter 31 10 μM, pre-incubation (P)): 3 µM (≈ 1.11 µg/mL)
- inhibition of trypsin (in words) (trypsin): inhibit only cathepsin B
- viability at 7 h, 50 µM (in vitro): 76%

Structure (SMILES): CC(=O)/C=C1/C(=O)N(C)c2ccccc21 [Compound 48, super-cinnamaldehyde, reference compound]
- IC50 (HK cells, transporter 31 [2]): 4 µM
- MIC (concentration needed to reach 15% inhibition) (HK cells, transporter 31 [2]): <1 µM
- RV50 (concentration needed to lower relative viability by 50%) (HeLa Kyoto cells [3]): >20 µM
- viability at 7 h, 5 µM (in vitro): 94%

Structure (SMILES): CC#CI1OC(=O)c2ccccc21 [Compound 49, reference compound]
- RV50 (concentration needed to lower relative viability by 50%) (HeLa Kyoto cells [1]; [6]): >50 µM
- IC50 (HK cells, transporter 32): 10 µM
- MIC (concentration needed to reach 15% inhibition) (HK cells, transporter 32): 0.3 µM (≈ 0.0858 µg/mL)
- IC15 (HK cells, transporter 28; 1 h, read-out: MIC (concentration needed to reach 15% inhibition), transporter 28 5 μM, pre-incubation (P)): 8.7 µM
- IC50 (HK cells, transporter 28; pre-incubation (P)): 53 µM
- MIC (concentration needed to reach 15% inhibition) (HK cells, transporter 28; [7]): 9 µM (≈ 2.57 µg/mL)
- IC50 (HK cells, transporter 31 [2]): 40 µM
- MIC (concentration needed to reach 15% inhibition) (HK cells, transporter 31 [2]): 4 µM (≈ 1.14 µg/mL)
- RV50 (concentration needed to lower relative viability by 50%) (HeLa Kyoto cells [3]): 60 µM
- viability at 7 h, 5 µM (in vitro): 92%
